Key:
physchem = conditions: pH 9.5, aqueous buffer
[1] = people driving; similar to 0.08 breath alcohol; cited from earlier work
[2] = sustained abstinence in chronic frequent smokers; cited from earlier work

## COc1cc(NS(C)(=O)=O)ccc1N [OX0245]
physchem
  solubility: ≥ 1000 µg/mL

## CCCCCc1cc(O)c2c(c1)OC(C)(C)[C@@H]1CCC(C)=C[C@@H]21 [THC, Δ-9-tetrahydrocannabinol]
[1]
  blood concentration showing increased weaving within the lane: 13.1 µg/L
[2]
  time residual THC can be detected in blood: up to a month
